Experimental data published in patent US20220267352A1, “RAPAMYCIN ANALOGS AND USES THEREOF” (Anakuria Therapeutics, Inc., priority 2021, published 2022).

Assays:
Type in all cases: cell-based
[1] = system: p-p70 S6 Kinase (Thr389) in MCF-7 cells; assay: AlphaLISA Ultra pS6K1 assay; details: Homo sapiens, 1.5 h; MCF7 cells, 90 min
Procedure, shortened: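 MCF-7 cells seeded 20–24 h, given fresh medium 2 h, then treated with compounds 90 min (0.5% DMSO final). Cells lysed, lysates frozen at −80 °C, then Thr389-phosphorylated S6K1 detected by AlphaLISA Ultra with acceptor beads 2 h, then donor beads 2 h.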

mTORC1 over mTORC2 = mTORC1 over mTORC2 selectivity by comparing pS6K1 and pAKT IC50; details: by comparing pS6K1 and pAKT IC50, 90 min
Procedure, shortened: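 MCF-7 cells were treated with compounds (0.5% final DMSO) for 90 minutes in one protocol and 2 hours in the other, then lysed. Phospho-signal in lysates was read by bead-based donor/acceptor proximity assay. pS6K1 and pAKT IC50 values were compared to judge mTORC1 over mTORC2 selectivity, at 90 min and at 24 hrs.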

[2] = system: p-Akt 1/2/3 (Ser473) in MCF-7 cells; assay: AlphaLISA Ultra pAKT assay; details: Homo sapiens, 1.5 h; MCF7 cells, 90 min
Procedure, shortened: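 MCF-7 cells (16,000˜20,000 per well in 36 μL medium) were seeded in Corning 3701 plates for 20˜24 hour, refreshed with new medium for 90 minutes, then given 12 μL of 4× compound (0.5% final DMSO). Cells were lysed with 2× lysis buffer, and lysate was analyzed by AlphaLISA Ultra pAKT using acceptor and donor beads, read on an EnSpire reader.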

Compound | IC50 [1] | IC50 [2] | mTORC1 selective @ 90 min (mTORC1 over mTORC2)
CO[C@@H]1C[C@H](C[C@@H](C)[C@@H]2CC(=O)[C@H](C)/C=C(\C)[C@@H](O)[C@@H](OC)C(=O)[C@H](C)C[C@H](C)/C=C/C=C/C=C(\C)[C@@H](OCCOC3COC3)C[C@@H]3CC[C@@H](C)[C@@](O)(O3)C(=O)C(=O)N3CCCC[C@H]3C(=O)O2)CC[C@H]1OP(C)(C)=O [I-78, (1R,9S,12S,15R,16E,18R,19R,21R,23S,24E,26E,28E,30S,32S,35R)-12-[(1R)-2-[(1S,3R,4R)-4-dimethylphosphoryloxy-3-methoxy-cyclohexyl]-1-methyl-ethyl]-1,18-dihydroxy-19-methoxy-15,17,21,23,29,35-hexamethyl-30-[2-(oxetan-3-yloxy)ethoxy]-11,36-dioxa-4-azatricyclo[30.3.1.0^4,9]hexatriaconta-16,24,26,28-tetraene-2,3,10,14,20-pentone] | < 1 nM | ≥ 1000 nM | Yes
COCCO[C@@H]1CC[C@@H](C[C@@H](C)[C@@H]2CC(=O)[C@H](C)/C=C(\C)[C@@H](O)[C@@H](OC)C(=O)[C@H](C)C[C@H](C)/C=C/C=C/C=C(\C)C(OC[C@H]3COCCO3)C[C@@H]3CC[C@@H](C)[C@@](O)(O3)C(=O)C(=O)N3CCCC[C@H]3C(=O)O2)C[C@H]1OC (stereo partly drawn) [I-79, (1R,9S,12S,15R,16E,18R,19R,21R,23S,24E,26E,28E,32S,35R)-30-[[(2R)-1,4-dioxan-2-yl]methoxy]-1,18-dihydroxy-19-methoxy-12-[(1R)-2-[(1S,3R,4R)-3-methoxy-4-(2-methoxyethoxy)cyclohexyl]-1-methyl-ethyl]-15,17,21,23,29,35-hexamethyl-11,36-dioxa-4-azatricyclo[30.3.1.0^4,9]hexatriaconta-16,24,26,28-tetraene-2,3,10,14,20-pentone] | 1 to 10 nM | ≥ 1000 nM | Yes
CO[C@@H]1/C(C)=C/[C@@H](C)C(=O)C[C@@H]([C@H](C)C[C@@H]2CC[C@@H](OCCO)[C@H](OC)C2)OC(=O)[C@@H]2CCCCN2C(=O)C(=O)[C@]2(O)O[C@@H](CC[C@H]2C)CC(OCCOCCOC2COC2)/C(C)=C/C=C/C=C/[C@@H](C)C[C@@H](C)C(=O)[C@@H]1OC (stereo partly drawn) [I-80, (1R,9S,12S,15R,16E,18R,19R,21R,23S,24E,26E,28E,32S,35R)-1-hydroxy-12-[(1R)-2-[(1S,3R,4R)-4-(2-hydroxyethoxy)-3-methoxy-cyclohexyl]-1-methyl-ethyl]-18,19-dimethoxy-15,17,21,23,29,35-hexamethyl-30-[2-[2-(oxetan-3-yloxy)ethoxy]ethoxy]-11,36-dioxa-4-azatricyclo[30.3.1.0^4,9]hexatriaconta-16,24,26,28-tetraene-2,3,10,14,20-pentone] | 10 to 100 nM | ≥ 1000 nM | Yes
CO[C@@H]1C[C@H](C[C@@H](C)[C@@H]2CC(=O)[C@H](C)/C=C(\C)[C@@H](O)[C@@H](OC)C(=O)[C@H](C)C[C@H](C)/C=C/C=C/C=C(\C)[C@H](OC[C@@H]3COCCO3)C[C@@H]3CC[C@@H](C)[C@@](O)(O3)C(=O)C(=O)N3CCCC[C@H]3C(=O)O2)CC[C@H]1OCCO [I-84, (1R,9S,12S,15R,16E,18R,19R,21R,23S,24E,26E,28E,30R,32S,35R)-30-[[(2S)-1,4-dioxan-2-yl]methoxy]-1,18-dihydroxy-12-[(1R)-2-[(1S,3R,4R)-4-(2-hydroxyethoxy)-3-methoxy-cyclohexyl]-1-methyl-ethyl]-19-methoxy-15,17,21,23,29,35-hexamethyl-11,36-dioxa-4-azatricyclo[30.3.1.04,9]hexatriaconta-16,24,26,28-tetraene-2,3,10,14,20-pentone] | 1 to 10 nM | ≥ 1000 nM | Yes
CO[C@@H]1C[C@H](C[C@@H](C)[C@@H]2CC(=O)[C@H](C)/C=C(\C)[C@@H](O)[C@@H](OC)C(=O)[C@H](C)C[C@H](C)/C=C/C=C/C=C(\C)C(OCCOC3COC3)C[C@@H]3CC[C@@H](C)[C@@](O)(O3)C(=O)C(=O)N3CCCC[C@H]3C(=O)O2)CC[C@H]1O (stereo partly drawn) [I-88, (23E,25E,27E,28E,32R,33S,34R,35R,37S,39S,41R,42S,44R,45R,54R)-44,54-dihydroxy-42-[(1R)-2-[(1S,3R,4R)-4-hydroxy-3-methoxy-cyclohexyl]-1-methyl-ethyl]-45-methoxy-32,33,34,35,46,47-hexamethyl-41-[2-(oxetan-3-yloxy)ethoxy]-65,66-dioxa-55-azatricyclohexatriaconta-23,25,27(46),28(47)-tetraene-48,49,50,51,52-pentone] | 1 to 10 nM | ≥ 1000 nM | Yes
CO[C@@H]1C[C@H](C[C@@H](C)[C@@H]2CC(=O)[C@H](C)/C=C(\C)[C@@H](O)[C@@H](OC)C(=O)[C@H](C)C[C@H](C)/C=C/C=C/C=C(\C)C(OCCOC3COC3)C[C@@H]3CC[C@@H](C)[C@@](O)(O3)C(=O)C(=O)N3CCCC[C@H]3C(=O)O2)CC[C@H]1OP(C)(C)=O (stereo partly drawn) [I-89, (1R,9S,12S,15R,16E,18R,19R,21R,23S,24E,26E,28E,32S,35R)-12-[(1R)-2-[(1S,3R,4R)-4-dimethylphosphoryloxy-3-methoxy-cyclohexyl]-1-methyl-ethyl]-1,18-dihydroxy-19-methoxy-15,17,21,23,29,35-hexamethyl-30-[2-(oxetan-3-yloxy)ethoxy]-11,36-dioxa-4-azatricyclo[30.3.1.04,9]hexatriaconta-16,24,26,28-tetraene-2,3,10,14,20-pentone] | 1 to 10 nM | ≥ 1000 nM | Yes

The next lines start with results.

IC50 [1] | IC50 [2] | Compound | mTORC1 selective @ 90 min (mTORC1 over mTORC2)
10 to 100 nM | ≥ 1000 nM | COCCO[C@@H]1CC[C@@H](C[C@@H](C)[C@@H]2CC(=O)[C@H](C)/C=C(\C)[C@@H](OC)[C@@H](OC)C(=O)[C@H](C)C[C@H](C)/C=C/C=C/C=C(\C)C(OCCOCCOC3COC3)C[C@@H]3CC[C@@H](C)[C@@](O)(O3)C(=O)C(=O)N3CCCC[C@H]3C(=O)O2)C[C@H]1OC (stereo partly drawn) [I-81, (1R,9S,12S,15R,16E,18R,19R,21R,23S,24E,26E,28E,32S,35R)-1-hydroxy-18,19-dimethoxy-12-[(1R)-2-[(1S,3R,4R)-3-methoxy-4-(2-methoxyethoxy)cyclohexyl]-1-methyl-ethyl]-15,17,21,23,29,35-hexamethyl-30-[2-[2-(oxetan-3-yloxy)ethoxy]ethoxy]-11,36-dioxa-4-azatricyclo[30.3.1.0^4,9]hexatriaconta-16,24,26,28-tetraene-2,3,10,14,20-pentone] | Yes
10 to 100 nM | ≥ 1000 nM | COCCO[C@@H]1CC[C@@H](C[C@@H](C)[C@@H]2CC(=O)[C@H](C)/C=C(\C)[C@@H](OC)[C@@H](OC)C(=O)[C@H](C)C[C@H](C)/C=C/C=C/C=C(\C)[C@H](OCCOC3COC3)C[C@@H]3CC[C@@H](C)[C@@](O)(O3)C(=O)C(=O)N3CCCC[C@H]3C(=O)O2)C[C@H]1OC [I-82, (1R,9S,12S,15R,16E,18R,19R,21R,23S,24E,26E,28E,30R,32S,35R)-1-hydroxy-18,19-dimethoxy-12-[(1R)-2-[(1S,3R,4R)-3-methoxy-4-(2-methoxyethoxy)cyclohexyl]-1-methyl-ethyl]-15,17,21,23,29,35-hexamethyl-30-[2-(oxetan-3-yloxy)ethoxy]-11,36-dioxa-4-azatricyclo[30.3.1.0^4,9]hexatriaconta-16,24,26,28-tetraene-2,3,10,14,20-pentone] | Yes
< 1 nM | ≥ 1000 nM | CO[C@@H]1C[C@H](C[C@@H](C)[C@@H]2CC(=O)[C@H](C)/C=C(\C)[C@@H](O)[C@@H](OC)C(=O)[C@H](C)C[C@H](C)/C=C/C=C/C=C(\C)C(OCCOC3CCOCC3)C[C@@H]3CC[C@@H](C)[C@@](O)(O3)C(=O)C(=O)N3CCCC[C@H]3C(=O)O2)CC[C@H]1OP(C)(C)=O (stereo partly drawn) [I-86, (1R,9S,12S,15R,16E,18R,19R,21R,23S,24E,26E,28E,32S,35R)-12-[(1R)-2-[(1S,3R,4R)-4-dimethylphosphoryloxy-3-methoxy-cyclohexyl]-1-methyl-ethyl]-1,18-dihydroxy-19-methoxy-15,17,21,23,29,35-hexamethyl-30-(2-tetrahydropyran-4-yloxyethoxy)-11,36-dioxa-4-azatricyclo[30.3.1.0^4,9]hexatriaconta-16,24,26,28-tetraene-2,3,10,14,20-pentone] | Yes
10 to 100 nM | ≥ 1000 nM | CNCCOCCOC1C[C@@H]2CC[C@@H](C)[C@@](O)(O2)C(=O)C(=O)N2CCCC[C@H]2C(=O)O[C@H]([C@H](C)C[C@@H]2CC[C@@H](OC)[C@H](OC)C2)CC(=O)[C@H](C)/C=C(\C)[C@@H](OC)[C@@H](OC)C(=O)[C@H](C)C[C@H](C)/C=C/C=C/C=C/1C (stereo partly drawn) [I-90, (24E,26E,28E,29E,35R,36S,37R,38R,40S,42S,45S,46R,47R,56R)-45-[(1R)-2-[(1S,3R,4R)-3,4-dimethoxycyclohexyl]-1-methyl-ethyl]-56-hydroxy-46,47-dimethoxy-35,36,37,38,48,49-hexamethyl-44-[2-[2-(methylamino)ethoxy]ethoxy]-65,66-dioxa-58-azatricyclohexatriaconta-24,26,28(48),29(49)-tetraene-50,51,52,53,54-pentone] | Yes
